Test results published in patent publication US6120997A, “Nucleic acid binders having an hydroxyamine motif” (The Scripps Research Institute, priority 1998, dated 2000).
Entries after “also recorded” stand apart in the source; their conditions may differ. Like-named read-outs stand apart in the source and are kept apart here.

Legend:
[1] = system: AS-wt; assay: SPR binding of aminoglycosides to decoding region A-site model AS-wt; design: species or system E. coli; details: for RNA binding, affinity or specificity for AS-wt (in words): Example 4; for specificity for AS-wt over negative controls (in words): Example 5, HBS-buffer
Procedure, shortened: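 Compounds were injected over biotinylated RNA immobilized on streptavidin SPR chips in HBS (150 mM NaCl, 10 mM HEPES pH 7.4, 3.4 mM EDTA) […]. KD was obtained by non-linear fitting of equilibrium binding isotherms; the KD(AS-U1495A)/KD(AS-wt) ratio defines specificity.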

[2] = molecular target: RBE3-neg; assay: SPR binding of aminoglycosides to RBE3-neg; details: 25 C; for Kd: pH 7.0, 10 mM HEPES, 150 mM NaCl, 0.1 mM EDTA, Scatchard slope; for Scatchard plot x-axis intercept (RBE3-neg): pH 7.0, 150 mM NaCl
Procedure: FIGS. 9A and 9B illustrate neomycin B binding to RBE3, RBE3-neg and wt-RRE-II. (A) Semilogarithmic plot. […] Conditions: pH 7.0, 10 mM HEPES, 150 mM NaCl, 0.1 mM EDTA, […].
FIGS. 10A and 10B illustrate paromomycin binding to RBE3, RBE3-neg and wt-RRE-II. (A) Semilogarithmic plot; the dashed line indicates the binding of neomycin B to wt-RRE-II for comparison (B) Scatchard plot. […] Conditions: pH 7.0, 10 mM HEPES, 150 mM NaCl, 0.1 mM EDTA, […].
Binding of the aminoglycoside to all three RNA oligonucleotides is observed starting in the low nanomolar concentration range and is non-saturable over the concentration range investigated. […] The high degree of non-specific binding is not surprising considering that aminoglycosides are highly charged polycations that tend to associate nonspecifically with the polyanionic phosphate backbone of RNA. […] Data points corresponding to 0.5 or more equivalents of neomycin B represent equilibrium values and can be analyzed with respect to stoichiometry and affinity of aminoglycoside binding. […] Both sequences bind one molecule of neomycin B with submicromolar affinity followed by weaker association with several additional equivalents of the antibiotic.
Samples were prepared by serial dilutions from stock solutions in RNase free microfuge tubes (Ambion) and were centrifuged at 14000 rpm for degassing. Buffers were filtered through sterile 0.2 &m nylon membranes (Nalgene) under vacuum, except for BIA certified HBS buffer (Pharmacia Biosensor AB) which was used as obtained. All procedures for binding studies were automated as methods using repetitive cycles of sample injection and regeneration. Typically, buffer was injected in the first two cycles to establish a stable baseline value. Samples were injected at a flowrate of 5-10 &L/min using either the KINJECT or the COINJECT command. All aminoglycoside and Rev27 samples were injected from autoclaved 7 mm plastic vials that were capped with pierceable plastic crimp caps. To minimize carry over, samples were injected in order of increasing concentration. The running buffer was identical to the injection buffer, except for the salt dependence study where a single running buffer was used for all injections. Expected values for the equilibrium response of one equivalent of analyte were calculated from the relative molecular weight of the analyte and the immobilized RNA ligand in each flowcells. These values were adjusted by multiplying with a factor of 0.8 or 0.57 for Rev27 or aminoglycosides respectively. These factors arise from the different molar refractive indices of RNA and the analyte and were determined from the Scatchard plot x-axis intercepts of the 1:1 binding isotherms for Rev27 and neomycin B.
Binding Studies with Aminoglycosides. […]

[3] = cited from earlier work
[4] = system: bacterial protein synthesis; details: cited from earlier work
[5] = system: Rev-RRE; details: cited from earlier work
[6] = system: AS-U1495A; assay: SPR binding of aminoglycosides to AS-U1495A; details: HBS-buffer
Procedure: The RNA binding properties of 100-800 were analyzed using a surface plasmon resonance based assay that was recently developed in these laboratories. This assay allows the determination of both affinity and specificity of small molecule-RNA interactions. For the analysis, the compounds were injected over a matrix containing RNA that was immobilized through a biotin tag and the equilibrium binding values were recorded at various concentrations.
Non-linear curve fitting was then used to determine the values of the dissociation constants (KD). The specificity of binding, i.e. the ability to discriminate between different RNA sequences was evaluated by comparing the binding to the target sequence (AS-wt) and the negative control (AS-U1495A). […]
For the quantitative measurement of aminoglycoside binding to these sequences, we utilized our recently developed SPR-based assay. […]
In the same manner as illustrated for paromomycin, a panel of aminoglycosides was screened and the results are compiled in the table of FIGS. 46 and 47. […] All data were recorded under near physiological salt conditions (HBS-buffer: 150 mM NaCl, 10 mM HEPES, pH7.4, 3.4 mM EDTA) unless noted otherwise. […]
Plasmon resonance and antimicrobial testing for Example 4. Synthesis of the biotinylated RNA and surface plasmon resonance detected binding experiments were performed as described vida supra. […]

NC[C@@H]1O[C@H](O[C@H]2[C@@H](O)[C@H](O[C@@H]3[C@@H](O)[C@H](N)C[C@H](N)[C@H]3O[C@H]3O[C@H](CN)[C@@H](O)[C@H](O)[C@H]3N)O[C@@H]2CO)[C@H](N)[C@@H](O)[C@@H]1O [Neomycin B]
RNA binding, affinity or specificity for AS-wt (in words) [1]: tightest binder; also recorded: further improvement of the overall affinity, without affecting specificity | specificity for AS-wt over negative controls (in words) [1]: specific for AS-wt over the negative control RNAs | Kd ([2]; read-out: Kd (RBE3-neg), neomycin B): 160 nM | Scatchard plot x-axis intercept (RBE3-neg) [2]: 0.98 | pKa of N3 [3]: < 6 | effect on bacterial protein synthesis (in words) [4]: induces miscoding during translation

NC[C@@H]1O[C@H](O[C@H]2[C@@H](O)[C@H](O[C@@H]3[C@@H](O)[C@H](N)C[C@H](N)[C@H]3O[C@H]3O[C@H](CO)[C@@H](O)[C@H](O)[C@H]3N)O[C@@H]2CO)[C@H](N)[C@@H](O)[C@@H]1O [Paromomycin]
RNA binding, affinity or specificity for AS-wt (in words) [1]: somewhat higher affinity but lower specificity | specificity for AS-wt over negative controls (in words) [1]: specific for AS-wt over the negative control RNAs | temperature dependence of binding to AS-wt (in words) ([1]; Neo16bd, AS-wt and RBE3): tighter at lower temperature | reported inhibitory effect on Rev-RRE binding (in words) [5]: virtually no inhibitory effect | reported inhibition difference between neomycin B and paromomycin, Rev-RRE ([5]; gel-shift assays): > 100 fold | Kd ([2]; read-out: Kd (RBE3-neg), paromomycin): 3100 nM | Scatchard plot x-axis intercept (RBE3-neg) [2]: 1.05 | weaker binding to AS-U1495A than to AS-wt [6]: 20 fold
